US20240408086A1, “USE OF LUVADAXISTAT FOR THE TREATMENT OF COGNITIVE IMPAIRMENT” (TAKEDA PHARMACEUTICAL COMPANY LIMITED, priority 2021, published 2024)

System: adult patients with persistent negative symptoms of schizophrenia
Assay type: in vivo, human
Description: To assess changes in cognitive impairment associated with schizophrenia (CIAS), secondary endpoints included the 12-week change from baseline in the Brief Assessment of Cognition in Schizophrenia (BACS) composite score, a measure of cognition across multiple domains, and the Schizophrenia Cognition Rating Scale (SCORS) score, a measure of day-to-day cognitive functioning requiring input from an adult informant. Secondary endpoints were not corrected for multiplicity.
The BACS is specifically designed to measure treatment-related improvements in cognition and includes alternate forms. BACS is a reliable and sensitive measure of cognitive function in schizophrenia. The BACS is a cognition assessment battery that assesses 6 domains of cognitive function found to be consistently impaired in schizophrenia: verbal memory; working memory; motor speed; attention; executive functions; and verbal fluency. The primary measure from each test of the BACS is standardized by creating T-scores whereby the mean of the test session of a matched reference healthy participant is set to 50 and the standard deviation set to 10.

[1] = 500 mg once daily, preliminary analysis

In the case of `O=c1[nH]nc(CCc2ccc(C(F)(F)F)cc2)cc1O` [Compound (I), luvadaxistat], the “BACS Composite Score, Week 6, Mean (SD)” value [1] is reported as 35.6 (13.84), the “BACS Composite Score, Week 6, Median” value [1] is reported as 38.0 and the “BACS Composite Score, Week 12, Mean (SD)” value [1] is reported as 37.6 (13.86). For the same compound, the “BACS Composite Score, Week 12, Median” value [1] was 40.0, the “BACS Motor Speed Cognition Domain, Change from Baseline to Week 6, Mean (SD)” value [1] was 0.5 (9.53) and the “BACS Motor Speed Cognition Domain, Change from Baseline to Week 6, Median” value [1] was 2.0. The “BACS Motor Speed Cognition Domain, Change from Baseline to Week 12, Mean (SD)” value [1] was 2.0 (6.58), the “BACS Motor Speed Cognition Domain, Change from Baseline to Week 12, Median” value [1] was 2.0 and the “BACS Motor Speed Cognition Domain, Week 6, Mean (SD)” value [1] was 40.7 (12.38). For the same compound, the “BACS Motor Speed Cognition Domain, Week 6, Median” value [1] was 41.0, the “BACS Motor Speed Cognition Domain, Week 12, Mean (SD)” value [1] was 41.3 (11.31) and the “BACS Motor Speed Cognition Domain, Week 12, Median” value [1] was 40.0. The “BACS Verbal Memory Cognition Domain, Change from Baseline to Week 6, Mean (SD)” value [1] was 1.8 (8.65), the “BACS Verbal Memory Cognition Domain, Change from Baseline to Week 6, Median” value [1] was 2.0 and the “BACS Verbal Memory Cognition Domain, Change from Baseline to Week 12, Mean (SD)” value [1] was 1.6 (10.04). The “BACS Verbal Memory Cognition Domain, Change from Baseline to Week 12, Median” value [1] was 0.0, the “BACS Verbal Memory Cognition Domain, Week 6, Mean (SD)” value [1] was 42.1 (12.06) and the “BACS Verbal Memory Cognition Domain, Week 6, Median” value [1] was 42.0. For the same compound, the “BACS Verbal Memory Cognition Domain, Week 12, Mean (SD)” value [1] was 41.8 (13.82), the “BACS Verbal Memory Cognition Domain, Week 12, Median” value [1] was 41.0 and the “BACS Working Memory Cognition Domain, Change from Baseline to Week 6, Mean (SD)” value [1] was 0.5 (7.99). The “BACS Working Memory Cognition Domain, Change from Baseline to Week 6, Median” value [1] was 0.0, the “BACS Working Memory Cognition Domain, Change from Baseline to Week 12, Mean (SD)” value [1] was 1.7 (7.39) and the “BACS Working Memory Cognition Domain, Change from Baseline to Week 12, Median” value [1] was 0.0. For the same compound, the “BACS Working Memory Cognition Domain, Week 6, Mean (SD)” value [1] was 40.1 (13.75), the “BACS Working Memory Cognition Domain, Week 6, Median” value [1] was 43.0 and the “BACS Working Memory Cognition Domain, Week 12, Mean (SD)” value [1] was 42.6 (13.20). For the same compound, the “BACS Working Memory Cognition Domain, Week 12, Median” value [1] was 45.0, the “BACS Attention Cognition Domain, Change from Baseline to Week 6, Mean (SD)” value (500 mg, Week 6) was 0.9 (6.26) and the “BACS Attention Cognition Domain, Change from Baseline to Week 6, Median” value (500 mg, Week 6) was 0.0. For the same compound, the “BACS Attention Cognition Domain, Week 6, Mean (SD)” value (500 mg, Week 6) was 35.5 (12.68), the “BACS Attention Cognition Domain, Week 6, Median” value (500 mg, Week 6) was 35.0 and the “BACS Executive Functions Cognition Domain, Change from Baseline to Week 6, Mean (SD)” value (500 mg, Week 6) was 1.3 (7.62). The “BACS Executive Functions Cognition Domain, Change from Baseline to Week 6, Median” value (500 mg, Week 6) was 0.0, the “BACS Executive Functions Cognition Domain, Week 6, Mean (SD)” value (500 mg, Week 6) was 47.0 (10.95) and the “BACS Executive Functions Cognition Domain, Week 6, Median” value (500 mg, Week 6) was 51.0. The “BACS Verbal Fluency Cognition Domain, Change from Baseline to Week 6, Mean (SD)” value (500 mg, Week 6) was 0.8 (5.87), the “BACS Verbal Fluency Cognition Domain, Change from Baseline to Week 6, Median” value (500 mg, Week 6) was 1.0 and the “BACS Verbal Fluency Cognition Domain, Week 6, Mean (SD)” value (500 mg, Week 6) was 39.6 (10.14). For the same compound, the “BACS Verbal Fluency Cognition Domain, Week 6, Median” value (500 mg, Week 6) was 40.0, the “BACS Attention Cognition Domain, Adjusted Change from Baseline to Week 6, LS Mean (SE)” value (500 mg, Week 6, MMRM) was 1.0 (0.96) and the “BACS Attention Cognition Domain, Difference from Placebo for Week 6, LS Mean (SE)” value (500 mg, Week 6, MMRM) was 0.0 (1.15). For the same compound, the “BACS Executive Functions Cognition Domain, Adjusted Change from Baseline to Week 6, LS Mean (SE)” value (500 mg, Week 6, MMRM) was 1.1 (1.29), the “BACS Executive Functions Cognition Domain, Difference from Placebo for Week 6, LS Mean (SE)” value (500 mg, Week 6, MMRM) was 2.3 (1.57) and the “BACS Verbal Fluency Cognition Domain, Adjusted Change from Baseline to Week 6, LS Mean (SE)” value (500 mg, Week 6, MMRM) was 0.5 (0.74). The “BACS Verbal Fluency Cognition Domain, Difference from Placebo for Week 6, LS Mean (SE)” value (500 mg, Week 6, MMRM) was 0.3 (0.89), the “BACS Attention Cognition Domain, Change from Baseline to Week 12, Mean (SD)” value (500 mg, Week 12) was 3.1 (9.31) and the “BACS Attention Cognition Domain, Change from Baseline to Week 12, Median” value (500 mg, Week 12) was 2.0. The “BACS Attention Cognition Domain, Week 12, Mean (SD)” value (500 mg, Week 12) was 38.0 (14.08), the “BACS Attention Cognition Domain, Week 12, Median” value (500 mg, Week 12) was 36.0 and the “BACS Executive Functions Cognition Domain, Change from Baseline to Week 12, Mean (SD)” value (500 mg, Week 12) was 2.0 (9.28). For the same compound, the “BACS Executive Functions Cognition Domain, Change from Baseline to Week 12, Median” value (500 mg, Week 12) was 0.0, the “BACS Executive Functions Cognition Domain, Week 12, Mean (SD)” value (500 mg, Week 12) was 48.5 (11.88) and the “BACS Executive Functions Cognition Domain, Week 12, Median” value (500 mg, Week 12) was 51.0. The “BACS Verbal Fluency Cognition Domain, Change from Baseline to Week 12, Mean (SD)” value (500 mg, Week 12) was 1.3 (6.95), the “BACS Verbal Fluency Cognition Domain, Change from Baseline to Week 12, Median” value (500 mg, Week 12) was 0.0 and the “BACS Verbal Fluency Cognition Domain, Week 12, Mean (SD)” value (500 mg, Week 12) was 40.6 (10.30). For the same compound, the “BACS Verbal Fluency Cognition Domain, Week 12, Median” value (500 mg, Week 12) was 40.0, the “BACS Attention Cognition Domain, Adjusted Change from Baseline to Week 12, LS Mean (SE)” value (500 mg, Week 12, MMRM) was 3.1 (1.09) and the “BACS Attention Cognition Domain, Difference from Placebo for Week 12, LS Mean (SE)” value (500 mg, Week 12, MMRM) was 1.2 (1.33). For the same compound, the “BACS Executive Functions Cognition Domain, Adjusted Change from Baseline to Week 12, LS Mean (SE)” value (500 mg, Week 12, MMRM) was 2.0 (1.19), the “BACS Executive Functions Cognition Domain, Difference from Placebo for Week 12, LS Mean (SE)” value (500 mg, Week 12, MMRM) was 1.4 (1.42) and the “BACS Verbal Fluency Cognition Domain, Adjusted Change from Baseline to Week 12, LS Mean (SE)” value (500 mg, Week 12, MMRM) was 0.5 (0.91). The “BACS Verbal Fluency Cognition Domain, Difference from Placebo for Week 12, LS Mean (SE)” value (500 mg, Week 12, MMRM) was −0.5 (1.11).
